{
  "source": "patent US7704699B2",
  "about": "“Method for the characterization of the three-dimensional structure of proteins employing mass spectrometric analysis and computational feedback modeling” (H-NU OPS, Inc., priority 1993, dated 2010)",
  "system": "cytochrome c; horse tuna and yeast",
  "experiment": "ES-MS study of non-covalent interactions of crown ethers with three types of cytochrome c (rank order)",
  "format": "binding",
  "details": "rank among the three crown ethers, all three cytochrome c types",
  "procedure": "[…]; horse tuna and yeast, utilizing the ES probe 50 and method of this invention.\nMore particularly, the experiments showing binding of crowns to cytochrome c were done by adding 1, 2, and 3 mol ratios to a 70 pmol/μL mixture of the three different cytochrome c's. The solutions were prepared with equal parts of methanol/water with 1% acetic acid. Typical sample conditions were, 95° C., 2 μL/min, 4000 VDC on the syringe, 170 VDC on the capillary tube, and 60 VDC on the skimmer.",
  "data": [
    {"compound": "c1ccc2c(c1)OCCOCCOc1ccccc1OCCOCCO2", "note": "[Dibenzo-18-Crown-6, dibenzo-18-crown-6]", "values": [
      {"measurement": "relative tightness of binding to cytochrome c", "value": "binding the least tightly"}
    ]},
    {"compound": "C1CCC2OCCOCCOC3CCCCC3OCCOCCOC2C1", "note": "(centres unmarked) [Dicyclohexano-18-Crown-6, dicyclohexano-18-crown-6]", "values": [
      {"measurement": "relative tightness of binding to cytochrome c", "value": "binding the most tightly"}
    ]}
  ]
}
